pIC50: −log10 of the molar value.
Tests used:
K-562 = test: Cell growth inhibition assay (CellTiter-Glo), K-562; type: cell-based, human; conditions: K-562 cells, 4 days; for GI50: Homo sapiens, K562, 96 h, half-maximal growth inhibition; for K-562 TGI: total growth inhibition
Summary of the method: (§1)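 Proliferation and viability are quantified by CellTiter-Glo after four days of incubation with serially diluted compound (maximum 10 μM). Four-parameter curve fitting gives IC50 and TGI.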

BRD2 = BRD2 (Homo sapiens (Human), UniProt P25440); test: TR-FRET in-vitro binding assay for BRD2; conditions: 45 nM His-Brd2(60-472), acetyl-histone H4 (AcK 5, 8, 12, 16) peptide
Chain of BRD2 (P25440 60-472): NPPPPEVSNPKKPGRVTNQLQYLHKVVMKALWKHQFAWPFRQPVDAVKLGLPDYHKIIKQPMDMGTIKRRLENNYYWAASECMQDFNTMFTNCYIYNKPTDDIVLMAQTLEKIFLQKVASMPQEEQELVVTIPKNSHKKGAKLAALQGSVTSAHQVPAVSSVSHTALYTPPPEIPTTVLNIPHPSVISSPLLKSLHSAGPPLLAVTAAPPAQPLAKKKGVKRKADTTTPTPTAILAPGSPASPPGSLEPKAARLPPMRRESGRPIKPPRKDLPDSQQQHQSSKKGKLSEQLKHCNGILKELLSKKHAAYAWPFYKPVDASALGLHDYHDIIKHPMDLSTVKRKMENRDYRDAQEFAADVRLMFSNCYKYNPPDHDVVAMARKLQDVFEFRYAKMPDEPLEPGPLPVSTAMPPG
Summary of the method: (§2)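 Binding is detected by TR-FRET following incubation for 35 minutes at 30° C.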

MV-4-11 = test: Cell growth inhibition assay (CellTiter-Glo), MV-4-11; type: cell-based, human; conditions: MV-4-11 cells, 4 days; for GI50: Homo sapiens, MV4-11, 96 h, half-maximal growth inhibition; for MV-4-11 TGI: total growth inhibition
Summary of the method: as §1

THP-1 = test: Cell growth inhibition assay (CellTiter-Glo), THP-1; type: cell-based, human; conditions: THP-1 cells, 4 days; for GI50: Homo sapiens, 96 h, half-maximal growth inhibition; for THP-1 TGI: total growth inhibition
Summary of the method: as §1

BRD4 = BRD4 (Homo sapiens (Human), UniProt O60885); test: TR-FRET in-vitro binding assay for BRD4; conditions: 45 nM His-Brd4(44-477), acetyl-histone H4 (AcK 5, 8, 12, 16) peptide
Summary of the method: as §2

BRD3 = BRD3 (Homo sapiens (Human), UniProt Q15059); test: TR-FRET in-vitro binding assay for BRD3; conditions: 45 nM His-Brd3(20-477), acetyl-histone H4 (AcK 5, 8, 12, 16) peptide
Chain of BRD3 (Q15059 20-477): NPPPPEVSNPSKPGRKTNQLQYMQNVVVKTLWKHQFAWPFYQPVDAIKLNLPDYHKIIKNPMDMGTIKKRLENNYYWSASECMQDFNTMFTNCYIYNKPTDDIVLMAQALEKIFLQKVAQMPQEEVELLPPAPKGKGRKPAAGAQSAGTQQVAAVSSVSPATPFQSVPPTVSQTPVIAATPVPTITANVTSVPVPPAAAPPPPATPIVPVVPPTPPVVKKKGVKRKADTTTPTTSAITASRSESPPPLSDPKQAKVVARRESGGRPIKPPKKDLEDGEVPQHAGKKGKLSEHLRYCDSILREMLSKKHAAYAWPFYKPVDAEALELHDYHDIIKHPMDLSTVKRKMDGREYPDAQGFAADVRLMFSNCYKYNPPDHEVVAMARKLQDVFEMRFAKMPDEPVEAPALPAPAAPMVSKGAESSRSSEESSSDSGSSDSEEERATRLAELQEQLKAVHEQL
Summary of the method: as §2

BRD4-NUT-fusion = BRD4-NUT-fusion (Homo sapiens, UniProt O60885); test: Nut-foci formation assay in HCC2494 NUT midline carcinoma cells; type: cell-based; conditions: 24 hours, nuclear BRD4-NUT foci by immunofluorescence microscopy, read-out: HCS Brd4-NUT IC50
Experimental: Nut-Foci Formation Assay […] Compound-mediated inhibition of BRD4 activity can be monitored by quantification of the number and intensity of nuclear BRD4-NUT foci using automated immunofluorescence microscopy. Briefly, 5000 cells in 20 μL fresh medium are seeded into Poly-D-Lysine-precoated 384-well plates and incubated overnight at 37° C. and 5% CO2, followed by addition of 5 μl medium containing compound dilutions at 5-fold their final intended concentration. […] Assay plates can be imaged using the appropriate filter sets on the Cellomics VTi automated fluorescence microscopy platform (ThermoFisher Scientific) and the population average of the number of NUT-foci per nucleus is quantified using the Cellomics Spot Detection BioApplication image analysis algorithm (ThermoFisher Scientific). […] Compound concentrations leading to half-maximal (IC50) inhibition of the aforementioned readout parameters are determined using standard four parameter curve fitting.

SMILES | GI50 (K-562) [nM] | pIC50 (BRD2) | GI50 (MV-4-11) [nM] | GI50 (THP-1) [nM] | pIC50 (BRD4) | pIC50 (BRD3) | pIC50 (BRD4-NUT-fusion) | K-562 TGI (K-562) [nM] | MV-4-11 TGI (MV-4-11) [nM] | THP-1 TGI (THP-1) [nM]
Cn1c(-c2ccc(=O)n(C)c2)cc2c1C(c1ccc(Cl)cc1)N(c1cc(Cl)c(=O)n(C)c1)C2=O (centres unmarked) [Example 42, 5-(5-chloro-1-methyl-6-oxo-1,6-dihydropyridin-3-yl)-6-(4-chlorophenyl)-1-methyl-2-(1-methyl-6-oxo-1,6-dihydropyridin-3-yl)-5,6-dihydropyrrolo[3,4-b]pyrrol-4(1H)-one] | 3190 | – | 227 | 811 | 6.57 | 7.28 | 5.30 | >10000 | 348 | 1470
Cc1cc(N2C(=O)c3cc(-c4ccn(C)c(=O)c4)n(C)c3C2c2ccc(Cl)cc2)cn(C)c1=O (centres unmarked) [Example 45, 6-(4-chlorophenyl)-5-(1,5-dimethyl-6-oxo-1,6-dihydropyridin-3-yl)-1-methyl-2-(1-methyl-2-oxo-1,2-dihydropyridin-4-yl)-5,6-dihydropyrrolo[3,4-b]pyrrol-4(1H)-one] | 345 | 7.66 | 55.9 | 109 | 7.61 | 7.73 | 7.01 | >10000 | 96.7 | 213
Cc1cc2c(n1C)[C@@H](c1ccc(Cl)cc1)N(c1cc(Cl)c(=O)n(C)c1)C2=O [Example 75, (R)-5-(5-chloro-1-methyl-6-oxo-1,6-dihydropyridin-3-yl)-6-(4-chlorophenyl)-1,2-dimethyl-5,6-dihydropyrrolo[3,4-b]pyrrol-4(1H)-one] | 289 | 6.87 | 54.8 | 74.3 | 7.07 | 7.27 | 7.95 | >10000 | 102 | 167
Cn1ccc2c1[C@@H](c1ccc(Cl)cc1)N(c1cc(Cl)c(=O)n(C)c1)C2=O [Example 77, (R)-5-(5-chloro-1-methyl-6-oxo-1,6-dihydropyridin-3-yl)-6-(4-chlorophenyl)-1-methyl-5,6-dihydropyrrolo[3,4-b]pyrrol-4(1H)-one] | 342 | 6.70 | 57.6 | 88.9 | 6.96 | 7.02 | 8.00 | >10000 | 96.3 | 146

Now those with a lower GI50 (K-562), led by results:

GI50 (K-562) [nM] | pIC50 (BRD2) | GI50 (MV-4-11) [nM] | GI50 (THP-1) [nM] | pIC50 (BRD4) | pIC50 (BRD3) | pIC50 (BRD4-NUT-fusion) | SMILES | K-562 TGI (K-562) [nM] | MV-4-11 TGI (MV-4-11) [nM] | THP-1 TGI (THP-1) [nM]
97.4 | 7.44 | 7.71 | 17.4 | 7.51 | 7.46 | 8.02 | Cc1cn(C)c2c1C(=O)N(c1cc(C)c3nnc(C)n3c1)C2c1ccc(Cl)cc1 (centres unmarked) [Example 33, 6-(4-chlorophenyl)-5-(3,8-dimethyl-[1,2,4]triazolo[4,3-a]pyridin-6-yl)-1,3-di methyl-5,6-dihydropyrrolo[3,4-b]pyrrol-4(1H)-one] | >10000 | 20.05 | 35.6
241 | 7.43 | 19.4 | 43.8 | 7.37 | 7.49 | 7.57 | Cc1cn(C)c2c1C(=O)N(c1cc(C)c(=O)n(C)c1)C2c1ccc(Cl)cc1 (centres unmarked) [Example 34, 6-(4-chlorophenyl)-5-(1,5-dimethyl-6-oxo-1,6-dihydropyridin-3-yl)-1,3-dimethyl-5,6-dihydropyrrolo[3,4-b]pyrrol-4(1H)-one] | >10000 | 48.3 | 99.4
154 | 6.49 | 29.4 | 37.5 | 7.33 | 7.23 | 7.14 | COc1ncc(-c2cc3c(n2C)C(c2ccc(Cl)cc2)N(c2cc(Cl)c(=O)n(C)c2)C3=O)c(OC)n1 (centres unmarked) [Example 38, 5-(5-chloro-1-methyl-6-oxo-1,6-dihydropyridin-3-yl)-6-(4-chlorophenyl)-2-(2,4-dimethoxypyrimidin-5-yl)-1-methyl-5,6-dihydropyrrolo[3,4-b]pyrrol-4(1H)-one] | >10000 | 51.5 | 72.7
48.3 | 7.57 | 8.9 | 23.3 | 7.35 | 7.55 | 7.57 | COc1ncc(-c2cc3c(n2C)[C@@H](c2ccc(Cl)cc2)N(c2cc(C)c(=O)n(C)c2)C3=O)c(OC)n1 [Example 54, (R)-6-(4-chlorophenyl)-2-(2,4-dimethoxypyrimidin-5-yl)-5-(1,5-dimethyl-6-oxo-1,6-dihydropyridin-3-yl)-1-methyl-5,6-dihydropyrrolo[3,4-b]pyrrol-4(1H)-one] | >10000 | 18 | 41.5
103 | 7.52 | 24.8 | 30.3 | 7.55 | 7.66 | 7.41 | COc1ncc(-c2cc3c(n2C)[C@@H](c2ccc(Cl)cc2)N(c2cc(C)c(=O)n(C)c2)C3=O)cn1 [Example 56, (R)-6-(4-chlorophenyl)-5-(1,5-dimethyl-6-oxo-1,6-dihydropyridin-3-yl)-2-(2-methoxypyrimidin-5-yl)-1-methyl-5,6-dihydropyrrolo[3,4-b]pyrrol-4(1H)-one] | >10000 | 44.5 | 50.7

From patent US9550796B2, “Pyrrolopyrrolone derivatives and their use as BET inhibitors” (NOVARTIS AG, priority 2013, dated 2017)
